Test results as given in patent publication US6479495B1, “Aminoalkylphenol derivatives and related compounds” (priority 1997, dated 2002).
Where a name gives a salt, the structure may show the parent alone. Read-outs that look alike come from different tables or passages of the source.

What was measured:
[1] = target: T1, acetylcholinesterase (Rattus norvegicus, UniProt P37136); assay: biochemical; conditions: read-out: Inhibition of Acetylcholinesterase Activity IC50
T1 construct: corpora striata dissected free, weighted and homogenized in 19 volumes (approximately 7 mg protein/ml) of 0.05M Phosphate Buffer; from tissue; host or cells: rat brain corpora striata, crude homogenate
T1 sequence (P37136 32-614): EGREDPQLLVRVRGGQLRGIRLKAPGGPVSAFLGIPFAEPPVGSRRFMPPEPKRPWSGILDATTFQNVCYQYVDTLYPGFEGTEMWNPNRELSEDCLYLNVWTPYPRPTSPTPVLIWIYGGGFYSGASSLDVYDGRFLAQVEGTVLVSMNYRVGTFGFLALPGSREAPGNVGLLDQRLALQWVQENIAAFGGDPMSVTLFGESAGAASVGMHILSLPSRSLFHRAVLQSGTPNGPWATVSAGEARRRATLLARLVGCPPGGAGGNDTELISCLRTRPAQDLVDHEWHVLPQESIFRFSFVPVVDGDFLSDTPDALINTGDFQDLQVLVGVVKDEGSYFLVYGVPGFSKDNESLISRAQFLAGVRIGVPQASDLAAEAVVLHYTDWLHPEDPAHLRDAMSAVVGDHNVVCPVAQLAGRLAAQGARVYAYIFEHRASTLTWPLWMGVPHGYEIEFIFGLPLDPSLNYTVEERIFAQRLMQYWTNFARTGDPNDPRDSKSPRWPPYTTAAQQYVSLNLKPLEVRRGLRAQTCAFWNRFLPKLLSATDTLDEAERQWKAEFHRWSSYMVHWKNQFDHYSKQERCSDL
Protocol: 1. 0.05M Phosphate Buffer (pH 7.2)
A solution of monobasic sodium phosphate monohydrate (6.85 g) in distilled water (100 ml) is added to a solution of dibasic sodium phosphate heptahydrate (13.4 g) and distilled water (100 ml) until a pH of 7.2 was attained. The solution was diluted 1 to 10 with distilled water.
3. 5,5-Dithiobisnitrobenzoic acid in Buffer
The 0.05M Phosphate Buffer (pH 7.2) was added to 5.5-dithiobisnitrobenzoic acid to a total volume of 100 ml, i.e., a quantity sufficient (gs) to 100 ml.
4. Stock Solution of Drug
A 2 millimolar stock solution of the test drug is prepared in a quantity sufficient of either acetic acid or dimethyl sulfoxide to volume with 5,5-dithiobisnitrobenzoic acid in Buffer. Stock Solution of Drug is serially diluted (1:10) so that the final cuvette concentration is 10^−4 molar.
Male Wistar rats are decapitated, brains rapidly removed, corpora striata dissected free, weighted and homogenized in 19 volumes (approximately 7 mg protein/ml) of 0.05M Phosphate Buffer (pH 7.2) using a Potter-Elvejhem homogenizer. A 25 μl aliquot of this suspension is added to 1 ml of the vehicle or various concentrations of the test drug and preincubated for 10 minutes at 37° C. Enzyme activity is measured with a Beckman DU-50 spectrophotometer with the following software and instrument settings:
Reagents are added to the blank and sample cuvettes as follows:
Blank values are determined for each run to control for non-enzymatic hydrolysis of substrate and these values are automatically subtracted by the Kindata program available on kinetics soft-pac module. This program also calculates the rate of absorbance change for each cuvette.
Substrate concentration is 10 millimolar diluted 1:2 in assay yielding final concentration of 5 millimolar. 5,5-dithiobisnitrobenzoicacid concentration is 0.5 millimolar yielding 0.25 millimolar final concentration. [formula]
IC50 values are calculated from log-probit analysis

[2] = Male Wistar rat corpora striata homogenate, preincubated 10 minutes at 37° C., acetylthiocholine substrate 5 millimolar final, log-probit analysis

Row | Compound | melting point | IC50 [1, 2] [nM] | other results
1 | COc1cc(CN2CCN(c3ccccc3F)CC2)ccc1OC(=O)N(C)C | 130 to 133 °C |  | 
2 | C#CCOc1cc(CN2CCc3cc(OC)c(OC)cc3C2)ccc1OC (as salt: hydrochloride) [Example 36, 6,7-Dimethoxy-N-[(4-methoxy)-3-(propargyloxy)phenylmethyl]-1,2,3,4-tetrahydroisoquinoline Hydrochloride] | 220 to 222 °C (dec.) |  | 
3 | COc1cc(CN2CCN(c3ccccn3)CC2)c(Br)cc1OC(=O)N(C)C [Example 67, N-(2-Bromo-4-[dimethylcarbamoyloxy]-5-methoxy)benzyl-N′-(pyridin-2-yl)-piperazine] |  | 18 | 
4 | COc1cc(CN2CCN(c3ccccn3)CC2)ccc1OC(=O)N(C)C [Example 40] | 140 to 145 °C |  | 
5 | CNC(=O)Oc1ccc(CN2CCc3cc(OC)c(OC)cc3C2)cc1OC (as salt: hydrochloride) [Example 42, 2-[3-Methoxy-4-(methylaminocarbonyloxy)phenylmethyl]-1-(6,7-dimethoxy)-1,2,3,4-tetrahydroisoquinoline Hydrochloride] | 205 to 208 °C (dec.) |  | 
6 | COC1(OCCO)CCN(Cc2ccccc2)C1 (stereo not shown) | 55 to 57 °C |  | 
7 | COc1cc(CN2CCN(c3ccccc3Cl)CC2)ccc1OC(=O)N(C)C.Cl | 190 to 193 °C |  | 
8 | CC(c1ccc(OC(=O)N(C)C)c(F)c1)N1CCN(c2ccccn2)CC1 (stereo not shown) [Example 74, 1-[1-(4-N,N-Dimethylcarbamoyloxy-3-fuorophenyl)ethyl]-4-pyridin-2-yl-piperazine] |  |  | IC50 [1]: 14000 nM
9 | CNC(=O)Oc1ccc(CN2CCN(c3ccccn3)CC2)cc1OC [Example 35, 4-[[3-Methoxy-4-(methylaminocarbonyloxy)]phenylmethyl]-1-(pyridin-2-yl)piperazine Hydrochloride Monohydrate] |  | 536 | 
10 | 4-(Methylaminocarbonyloxy)-3-(propargyloxy)1-(pyrrolidinomethyl)benzene Citrate [Example 17] |  | 3.6 | 
11 | COc1cc(CN2CCN(c3ccccc3OC)CC2)ccc1OC(=O)N(C)C (as salt: hydrochloride) [Example 49, 1-[[4-(Dimethylaminocarbonyloxy)-3-(methoxy)phenyl]methyl]-4-(2-methoxyphenyl)piperazine Dihydrochloride] | 196 to 206 °C |  | 
12 | CCOC(=O)COc1cc(C=O)ccc1OCc1ccccc1 | 36 to 43 °C |  | 
13 | CNC(=O)Oc1cc(CN2CCN(c3ccccn3)CC2)ccc1OC [Example 38, 4-[[4-Methoxy-3-(methylaminocarbonyloxy)]phenylmethyl]-1-(pyridin-2-yl)piperazine Dihydrochloride] |  | 2390 | 
14 | COc1cc(C(C)N2CCN(c3ccccn3)CC2)ccc1OC(=O)N(C)C (stereo not shown) [Example 78, 1-[1-(4-N,N-Dimethylcarbamoyloxy-3-methoxyphenyl)ethyl]-4-pyridin-2-yl-piperazine Dihydrochloride] |  | 358 | 
15 | CNC(=O)Oc1ccc(CN2CCN(c3ccc([N+](=O)[O-])cc3)CC2)cc1OC | 155 to 157 °C |  | 
16 | C#CCOc1cc(C=O)ccc1OS(C)(=O)=O | 81 to 83 °C |  | 
